Consider one compound from patent publication US20100092456A1, “METHODS OF TREATMENT” (priority 2006, published 2010).

One test concerns ING2. Kind of test: Western blot of endogenous ING2 associated with the CEF of MEL cells. The test is classed as cell-based, Murine. The following applies: differentiated MEL cells; H2O2 500 μM, 15 minutes. Here is the method:
FIG. 4. A) Exponentially growing MEL cells were irradiated with either 200 J/m of UV light or 10 Gy of gamma radiation. After 30 minutes the CEF was isolated and the subjected to SDS-PAGE followed by transfer of the separated proteins to a nitrocellulose membrane. Western blotting for endogenous ING2 and histone 4 proteins was performed. Representative western blots are shown. B) Exponentially growing MEL cells were incubated in the absence or presence of N-acetyl cysteine (NAC) (5 mM) for 4 hours prior to a control irradiation or exposed to 200 J/m of UV light before the isolation of the CEF. Differentiated MEL cells were incubated in the absence or presence of H2O2 (500 μM) for 15 minutes prior to the isolation of the CEF. Proteins in the CEF were subjected to SDS-PAGE followed by transfer to a nitrocellulose membrane. Western blotting for endogenous ING2 and histone 4 proteins was performed. Representative western blots are shown. C) MEL cells were preincubated with either vehicle, wortmannin (200 nM and 5 μM) or curcumin (100 μM) were irradiated with 200 J/m of UV light. After 30 minutes the CEF was isolated and proteins were subjected to SDS-PAGE followed by transfer to a nitrocellulose membrane. Western blotting for endogenous ING2 and histone 4 proteins was performed. Representative western blots are shown. D) The CEF from transiently transfected MEL cells with either pSuper or pSuper-IIβRNAi was prepared. Proteins in the CEF were subjected to SDS-PAGE followed by transfer to a nitrocellulose membrane. […] Proteins were analysed by standard western blotting procedures employing the following antibodies: anti-tubulin and anti-flag (both from Sigma), anti-actin (Chemicon International), anti-histone 4 (Upstate Biotechnology), anti-phospho p54, anti-phospho p46, anti-phospho p38, total p54, total p46 and total p38 (all from Cell Signalling Technology) anti-ING2, anti EGFP (Clontech), anti-type II β PIP kinase, anti-GST and anti-myc (both generated in house).

The test system of test [1] is PtdIns(4,5)P2 in HeLa cells. Briefly: PtdIns(4,5)P2 levels visualised with GFP-PH domain of PLCdelta1 probe in HeLa cells. The test is classed as cell-based. The following applies: 600 microMolar H2O2, no recovery hours after stimulation. The source says: Changes in intracellular PtdIns(4,5)P2 levels following stimulation with neurokinin A were visualised in real time using a fusion protein of GFP and the PH domain of PLCdelta1 as a probe. GFP PLC delta 1 is a highly specific in vivo probe for PIP2 in cells.
HeLa cells were transiently transfected with an expression plasmid encoding a fusion protein of GFP and the PH domain of PLCdelta1.
HeLa cells were transiently transfected with an expression plasmid encoding a fusion protein of GFP and the pleckstrin homology domain of PLCdelta1. GFP PLC delta1 is a highly specific in vivo probe for PtdIns(4,5)P2 in cells. Results are in FIG. 10.

Test [2] deals with T1, PIP 5-K (Mus musculus, UniProt P70181).
T1 construct: expressed in transfected cells; host or cells: HeLa cells
Kind of test: Localisation of GFP PIP 5-K in HeLa cells by confocal laser scanning microscopy. The test is classed as cell-based. The settings on record: 600 microMolar, away from the plasma membrane. Here is the method:
Panel A: HeLa cell were transiently transfected with expression plasmids encoding for a GFP fusion protein of PIP 5-K. In healthy cells GFP PIP 5-K is located at the plasma membrane. Cells were then treated with 600 microMolar H2O2 and the localisation of the GFP PIP 5-K was monitored on line using confocal laser scanning microscopy.
HeLa cells were transiently transfected with expression plasmids encoding for a GFP fusion protein of PIP 5-K. In healthy cells GFP PIP 5-K is located at the plasma membrane. Cells were then treated with 600 microMolar H2O2 and the localisation of the GFP PIP 5-K was monitored on line using confocal laser scanning microscopy. […] H2O2 regulates the localisation of the enzyme in vivo. (FIG. 12, panel A)

Test [3] has as its target T1, PIP 5-K. Briefly: In vitro activity of recombinant PIP 5-K (radioactive ATP, TLC). The test is classed as biochemical. The settings on record: apoptotic concentrations of H2O2; Cysteine 175 to serine mutant is not sensitive. The method, then: Panel B: Recombinant wild type PIP 5-K and a point mutation of PIP 5-K—(cysteine 175 altered to a serine residue) were both treated with H2O2 and enzyme activity was assayed in vitro by measuring the amount of product that is produced after incubation with substrate and radioactive ATP. The products were then analysed on TLC plate using phosphoimager.
Recombinant wild type PIP 5-K and a point mutation of PIP 5-K-(cysteine 175 altered to a serine residue) were both treated with H2O2 and enzyme activity was assayed in vitro by measuring the amount of product that is produced after incubation with substrate and radioactive ATP. The products were then analysed on TLC plate using phosphoimager. […] (FIG. 12, panel B).

T1 sequence (P70181 whole entry): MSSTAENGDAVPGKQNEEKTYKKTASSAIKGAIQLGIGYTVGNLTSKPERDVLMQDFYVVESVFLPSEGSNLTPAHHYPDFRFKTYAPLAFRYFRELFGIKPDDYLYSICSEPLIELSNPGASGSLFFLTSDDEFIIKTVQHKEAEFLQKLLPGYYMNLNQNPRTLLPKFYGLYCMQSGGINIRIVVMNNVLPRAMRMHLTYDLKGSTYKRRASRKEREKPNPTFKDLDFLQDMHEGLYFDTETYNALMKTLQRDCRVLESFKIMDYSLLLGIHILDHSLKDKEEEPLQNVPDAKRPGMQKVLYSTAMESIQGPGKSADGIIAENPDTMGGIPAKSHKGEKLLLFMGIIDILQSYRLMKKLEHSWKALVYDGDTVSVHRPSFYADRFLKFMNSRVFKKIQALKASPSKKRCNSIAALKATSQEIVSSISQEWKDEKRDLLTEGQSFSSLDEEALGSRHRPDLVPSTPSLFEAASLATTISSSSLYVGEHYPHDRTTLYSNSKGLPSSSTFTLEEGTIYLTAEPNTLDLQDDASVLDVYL

In the case of `OO` [H2O2], the “ING2 translocation to the CEF” value with ING2 is on record as “stimulated”. In addition, the “PtdIns(4,5)P2 levels (GFP-PH probe at plasma membrane)” value in test [1] was “sustained depletion”. On PIP 5-K [2], the “localisation of GFP PIP 5-K” value is listed as “induces translocation”. The “activity of recombinant wild type PIP 5-K after treatment” value on PIP 5-K [3] is recorded as “sensitive”.
